Experiments:
[1] = biological target: GpxB from Sulfitobacter pseudonitzschiae DSM26824; test: MST binding affinity assay, purified GpxB from Sulfitobacter pseudonitzschiae DSM26824; settings: GpxB of Sulfitobacter pseudonitzschiae DSM26824
Protocol: (§1) The binding affinity of the purified proteins to G1P and other structurally related chemicals was measured using a Monolith NT.115 (NanoTemper Technologies, Munich, Germany). Proteins (160 nM) were labeled in assay buffer (PBS containing 0.05% (v/v) Tween-20) using the Protein Labelling Kit RED-Tris-NTA (NanoTemper Technologies). For binding assays, the buffer was replaced by 20 mM HEPES pH 7.4, 100 mM NaCl, 0.05% (v/v) Tween-20. Each chemical was prepared by serial dilution in the same assay buffer and mixed with the same volume of labeled protein (at a final concentration of 80 nM). The mixture was then loaded onto Monolith™ NT.115 Series capillaries (NanoTemper Technologies, Germany) and thermophoresis was measured at 22 °C using 60% excitation power and medium MST power. Data were analyzed using MO. Affinity Analysis v2.3 software (NanoTemper Technologies).
(§2) The full-length codon optimized GpxB (MED193_19449) of Phaeobacter sp. MED193 (WP_009811375.1), and four GpxB homologs (Marinobacter sp. DSM11874, MBB6025290.1; S. pseudonitzschiae DSM26824, WP_037914517.1; Sulfitobacter sp. EE-36, WP_005852758.1; S. geojensis sp. EhN01, WP_064222091.1) were chemically synthesized by Beijing Tsingke Biotech Co., Ltd. (China), and subcloned into pET-22b (Novagen, America) with a C-terminal His-tag. An N-terminal signal peptide truncated [residues 1−22 predicted by SignalP 5.0 Server ([36])] […]

[2] = biological target: GpxB from Sulfitobacter geojensis EhN01; test: MST binding affinity assay, purified GpxB from Sulfitobacter geojensis EhN01; settings: GpxB of Sulfitobacter geojensis EhN01
Protocol: as §1, §2

[3] = biological target: Phaeobacter sp. MED193 UgpB (MED193_07903) (Phaeobacter sp. MED193 (Roseobacter sp. MED193), UniProt Z9VP90JAR2); test: MST binding affinity assay, purified recombinant UgpB; settings: 22 °C, 20 mM HEPES pH 7.4, 100 mM NaCl, recombinant UgpB of Phaeobacter sp. MED193
Protocol: as §1, §2

[4] = biological target: GpxB^DSM11874 (GpxB homolog from Marinobacter sp. DSM11874) (Marinobacter sp. DSM 11874, UniProt Z9YUV0DEE1); test: MST binding affinity assay, purified GpxB^DSM11874; settings: 22 °C, GpxB^DSM11874 of Marinobacter sp. DSM11874
Protocol: as §1, §2

Phaeobacter sp. MED193 = test: Growth on substrate as the sole C source, wild type; type: cell-based; settings: defined artificial seawater medium, 5 mM substrate
Protocol: (§3) Phaeobacter sp. MED193 and its mutant strains were routinely maintained on 1.5% (w/v) Difco marine broth 2216 agar with antibiotics as appropriate. To test the growth of Phaeobacter sp. MED193 on G1P/G3P, cells were first cultivated in 5 mL marine broth medium overnight at 30 °C with shaking at 150 rpm. A 1% (v/v) inoculum was then transferred to defined artificial seawater medium supplemented with 50 µM phosphate ([6]). After 24 h growth, 12.5 mL cultures were collected by centrifugation and inoculated into 100 mL artificial seawater medium. Subsequently, either G1P or G3P (purchased from Sigma-Aldrich, St. Louis, USA) was added to a final concentration of 5 mM as the sole C source. Cells (40 mL) were harvested after 48 h and used for proteomics.

[5] = test system: Phaeobacter sp. MED193 ∆ugpB∆gpxB double mutant; test: Growth on substrate as the sole carbon source, ∆ugpB∆gpxB double mutant; type: cell-based; settings: 5 mM substrate
Protocol: as §3
The gpxBugpB double mutant was generated using a conjugation protocol as described previously ([35]). First, two homologous regions of an upstream and a downstream fragment flanking the gpxB gene were cloned into suicide plasmid pK18mobsacB, together with a spectinomycin (Spec) resistance cassette which was inserted in between the upstream and downstream fragments. The resulting plasmid was then mobilized into Phaeobacter sp. MED193 using E. coli S17.1 lambda pir and transconjugants selected on marine broth MB agar containing Spec (200 µg mL^−1). […] The same protocol was repeated to generate the gpxBugpB double mutant in the gpxB single mutant background, except that a Gentamycin (Gm) resistant cassette was inserted in between the upstream and downstream fragments of ugpB into pK18mobsacB. All primers, plasmids, and bacterial strains used are listed in SI Appendix, Table S6.

[6] = biological target: Phaeobacter sp. MED193 GpxB (MED193_19449) (Roseobacter sp. MED193, UniProt A3X5C8); test: Microscale thermophoresis (MST) binding affinity assay, purified recombinant GpxB; settings: 22 °C, 20 mM HEPES pH 7.4, 100 mM NaCl, recombinant GpxB of Phaeobacter sp. MED193
Protocol: as §1, §2

[7] = biological target: GpxB from Sulfitobacter sp. EE-36; test: MST binding affinity assay, purified GpxB from Sulfitobacter sp. EE-36; settings: GpxB of Sulfitobacter sp. EE-36
Protocol: as §1, §2

[8] = test system: GpxB^DSM11874 alanine mutants (Tyr138, His199, Thr247, Arg223); test: MST binding affinity assay of site-directed alanine mutants of GpxB^DSM11874; parameters: species or system Marinobacter sp. DSM11874; settings: alanine mutants of Tyr138, His199, Thr247, Arg223 versus wild-type GpxB^DSM11874
Protocol: as §1, §2

Sequence of Phaeobacter sp. MED193 UgpB (MED193_07903) (Z9VP90JAR2 43-453 limits assumed): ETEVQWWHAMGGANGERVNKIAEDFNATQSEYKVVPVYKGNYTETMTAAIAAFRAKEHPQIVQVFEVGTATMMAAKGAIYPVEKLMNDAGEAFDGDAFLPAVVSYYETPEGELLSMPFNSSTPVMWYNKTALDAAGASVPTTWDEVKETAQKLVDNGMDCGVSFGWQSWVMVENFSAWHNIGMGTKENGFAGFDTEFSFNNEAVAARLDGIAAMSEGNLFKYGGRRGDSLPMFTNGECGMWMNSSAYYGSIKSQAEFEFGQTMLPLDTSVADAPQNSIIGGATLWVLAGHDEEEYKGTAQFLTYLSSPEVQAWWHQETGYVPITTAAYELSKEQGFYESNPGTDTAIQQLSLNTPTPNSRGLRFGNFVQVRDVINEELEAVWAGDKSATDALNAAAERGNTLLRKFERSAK
Sequence of Phaeobacter sp. MED193 GpxB (MED193_19449) (A3X5C8 1-326 limits assumed): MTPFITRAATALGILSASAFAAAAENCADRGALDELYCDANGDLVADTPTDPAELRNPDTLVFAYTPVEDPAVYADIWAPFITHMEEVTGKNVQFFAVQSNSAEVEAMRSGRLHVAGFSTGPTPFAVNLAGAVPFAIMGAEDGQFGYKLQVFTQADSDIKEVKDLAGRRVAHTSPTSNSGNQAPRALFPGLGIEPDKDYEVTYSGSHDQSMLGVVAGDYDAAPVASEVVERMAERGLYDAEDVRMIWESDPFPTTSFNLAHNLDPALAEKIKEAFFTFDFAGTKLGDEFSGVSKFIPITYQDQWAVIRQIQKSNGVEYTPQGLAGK
Sequence of GpxB^DSM11874 (GpxB homolog from Marinobacter sp. DSM11874) (Z9YUV0DEE1 21-315 limits assumed): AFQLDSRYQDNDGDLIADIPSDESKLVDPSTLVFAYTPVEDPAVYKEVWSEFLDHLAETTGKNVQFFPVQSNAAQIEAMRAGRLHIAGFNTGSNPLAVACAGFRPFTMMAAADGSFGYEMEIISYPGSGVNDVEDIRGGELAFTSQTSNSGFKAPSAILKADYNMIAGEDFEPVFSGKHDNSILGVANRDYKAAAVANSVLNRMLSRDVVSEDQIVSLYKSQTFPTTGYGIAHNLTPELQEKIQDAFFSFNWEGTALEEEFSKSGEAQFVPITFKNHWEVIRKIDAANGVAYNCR

| SMILES | binding affinity [1] | binding affinity [2] | Kd [3] | Kd [4] | growth on the substance as the sole C source (Phaeobacter sp. MED193) | growth on the substance as the sole carbon source [5] | Kd [6] | binding affinity [7] | reduction in binding affinity of alanine mutants [8] |
| --- | --- | --- | --- | --- | --- | --- | --- | --- | --- |
| O=P(O)(O)OC[C@@H](O)CO [G1P, sn-glycerol-1-phosphate] | low-µM | low-µM | 2.36 ± 0.35 µM | 1.72 ± 0.28 µM | grows | unable to grow | 2.48 ± 0.14 µM | low-µM | 10- to 100 fold |
| O=P(O)(O)OC[C@H](O)CO [G3P, sn-glycerol-3-phosphate] | low-µM | low-µM | 0.8 ± 0.26 µM | 1.06 ± 0.15 µM | grows | unable to grow | 1.02 ± 0.14 µM | low-µM | – |
| OCC(O)CO [glycerol] | – | – | – | – | grows | unaffected | – | – | – |

— paper PMC12718374, “Structural basis and evolutionary pathways of glycerol-1-phosphate transport in marine bacteria” (Proceedings of the National Academy of Sciences of the …, 2025)
